The target in the assay is MAPK14 (human) (UniProt Q16539). Briefly: Inhibition of MAPK14 Kinase Activity.
Sequence of MAPK14 (human) (Q16539 whole entry, looked up): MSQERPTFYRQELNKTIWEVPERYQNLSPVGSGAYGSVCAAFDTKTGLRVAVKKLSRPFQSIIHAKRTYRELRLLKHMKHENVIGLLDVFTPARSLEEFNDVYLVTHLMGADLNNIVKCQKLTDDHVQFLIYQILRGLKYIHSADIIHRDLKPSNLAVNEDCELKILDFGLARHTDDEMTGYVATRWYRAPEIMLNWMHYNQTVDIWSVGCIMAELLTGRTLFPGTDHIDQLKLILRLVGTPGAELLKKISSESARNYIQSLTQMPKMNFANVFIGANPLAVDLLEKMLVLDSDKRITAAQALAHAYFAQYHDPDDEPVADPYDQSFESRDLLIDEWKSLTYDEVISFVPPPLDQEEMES

In the case of `CCOC(=O)c1sc2c(ccc(=O)n2-c2ccc3c(ccn3C)c2)c1Nc1ccccc1C#N`, the IC50 is at most 1 µM. The compound `N#Cc1sc2c(ccc(=O)n2CC2CC2)c1Nc1ccc(F)c(Cl)c1` gave a concentration for half-maximal inhibition (IC50) of at most 1 µM.

`CCOC(=O)c1sc2c(c(C)cc(=O)n2-c2ccccc2)c1Nc1ccccc1` gave a half-maximal inhibitory concentration (IC50) of at most 1 µM. Compound `CCOC(=O)c1sc2c(ccc(=O)n2-c2ccccc2)c1Nc1cccc(Cl)c1` gave an IC50 of at most 1 µM.

For `Cc1ccccc1Nc1c(C#N)sc2c1ccc(=O)n2-c1ccccc1`, the half-inhibitory concentration (IC50) is at most 1 µM. As to `O=C(c1sc2c(ccc(=O)n2-c2ccccc2)c1Nc1ccccc1)N1CCCC1`, the concentration for half-maximal inhibition (IC50) was at most 1 µM.

In turn, `NC(=O)c1sc2c(ccc(=O)n2-c2ccccc2)c1Nc1cccc(OC(F)(F)F)c1` came in with a half-inhibitory concentration (IC50) of at most 1 µM. Consider `N#Cc1sc2c(ccc(=O)n2-c2ccccc2)c1Nc1ccc(F)c(Cl)c1`, for which the IC50 is at most 1 µM.

As for `NC(=O)c1sc2c(ccc(=O)n2-c2ccccc2)c1Nc1ccc(F)cc1`, the IC50 is at most 1 µM. The compound `CCOC(=O)c1sc2c(ccc(=O)n2-c2ccc(C(C)(C)O)cc2)c1Nc1ccccc1` returned a concentration for half-maximal inhibition (IC50) of at most 1 µM.

Take `CCOC(=O)c1sc2c(ccc(=O)n2-c2ccccc2)c1Nc1cccnc1`: the half-inhibitory concentration (IC50) is at most 1 µM. Consider `Cc1cc(Nc2c(C#N)sc3c2ccc(=O)n3-c2ccccc2Cl)ccc1F`, for which the IC50 was at most 1 µM. `N#Cc1sc2c(ccc(=O)n2-c2ccccc2)c1Nc1ccc(F)cc1F` yielded a 50% inhibitory concentration (IC50) of at most 1 µM. In turn, `Cc1c(Br)cccc1Nc1c(C#N)sc2c1ccc(=O)n2-c1ccccc1` returned a 50% inhibitory concentration (IC50) of at most 1 µM.

Consider `CN(C)c1ccc(-n2c(=O)ccc3c(Nc4ccccc4)c(C(=O)N4CCCC4)sc32)cc1`, for which the IC50 was at most 1 µM. `Cc1ccc(-n2c(=O)ccc3c(Nc4cccc(C)c4)c(C#N)sc32)cc1` registered a half-inhibitory concentration (IC50) of at most 1 µM. For the compound `CSc1cccc(Nc2c(C#N)sc3c2ccc(=O)n3-c2ccccc2)c1`, the concentration for half-maximal inhibition (IC50) was at most 1 µM. Compound `N#Cc1sc2c(ccc(=O)n2-c2ccc(OC[C@@H](O)CO)cc2)c1Nc1ccc(F)cc1F` returned an IC50 of at most 1 µM. On to `NC(=O)c1sc2c(ccc(=O)n2-c2ccccc2)c1Nc1ccccc1OC(F)F`, for which the half-maximal inhibitory concentration (IC50) was at most 1 µM. On to `NC(=O)c1sc2c(ccc(=O)n2CC2CC2)c1Nc1ccc(F)cc1F`, for which the half-inhibitory concentration (IC50) is at most 1 µM.

Consider `CON(C)C(=O)c1sc2c(ccc(=O)n2CC2CC2)c1Nc1ccccc1`, for which the 50% inhibitory concentration (IC50) is at most 1 µM.

For the compound `NC(=O)c1sc2c(ccc(=O)n2-c2ccsc2)c1Nc1ccccc1`, the IC50 is at most 1 µM. In the case of `CCOC(=O)c1sc2c(ccc(=O)n2-c2ccccc2)c1Nc1cccc(C)c1`, the IC50 was at most 1 µM.

Take `Cc1cc(Nc2c(C#N)sc3c2ccc(=O)n3-c2ccccc2)ccc1F`: the IC50 was at most 1 µM. For `N#Cc1sc2c(ccc(=O)n2-c2ccccc2)c1Nc1cccc(Br)c1` the value was at most 1 µM; for `O=C(O)c1sc2c(ccc(=O)n2-c2ccccc2)c1Nc1ccccc1`, at most 1 µM.

With `NC(=O)c1sc2c(ccc(=O)n2-c2ccccc2)c1Nc1cccc(Cl)c1`, the IC50 is at most 1 µM. On to `N#Cc1sc2c(ccc(=O)n2-c2ccccc2)c1Nc1ccccc1OC(F)F`, for which the concentration for half-maximal inhibition (IC50) was at most 1 µM. Compound `Cc1cc(Nc2c(C(N)=O)sc3c2ccc(=O)n3-c2ccccc2C)ccc1F` had a concentration for half-maximal inhibition (IC50) of at most 1 µM. In turn, `Cc1cccc(Nc2c(C(N)=O)sc3c2ccc(=O)n3-c2ccc(F)cc2)c1C#N` displayed a half-inhibitory concentration (IC50) of at most 1 µM. In turn, `CC(=O)c1ccc(-n2c(=O)ccc3c(Nc4cccc(Cl)c4)c(C#N)sc32)cc1` registered an IC50 of at most 1 µM. On to `CCOC(=O)c1sc2c(ccc(=O)n2-c2ccc3[nH]ccc3c2)c1Nc1ccccc1C#N`, for which the IC50 was at most 1 µM. Compound `NC(=O)c1sc2c(ccc(=O)n2Cc2ccccc2)c1Nc1ccccc1` showed a concentration for half-maximal inhibition (IC50) of at most 1 µM. `CON(C)C(=O)c1sc2c(ccc(=O)n2-c2ccccc2)c1Nc1ccccc1`: the half-maximal inhibitory concentration (IC50) is at most 1 µM. `COc1ccc(-n2c(=O)ccc3c(Nc4ccc(F)cc4F)c(C#N)sc32)cc1` yielded an IC50 of at most 1 µM. The compound `NC(=O)c1sc2c(ccc(=O)n2-c2ccccc2)c1Nc1ccc(F)c(Cl)c1` showed an IC50 of at most 1 µM. In turn, `Cc1cccc(Nc2c(C(N)=O)sc3c2ccc(=O)n3C2CC2)c1` yielded an IC50 of at most 1 µM. `C[S+]([O-])c1ccc(-n2c(=O)ccc3c(Nc4ccccc4C#N)c(C(N)=O)sc32)cc1` (configuration not stated) gave an IC50 of at most 1 µM. The same measure for `CCOC(=O)c1sc2c(ccc(=O)n2-c2ccc(S(C)(=O)=O)cc2)c1Nc1cccc(C)c1`: at most 1 µM. In turn, `CCOC(=O)c1sc2c(ccc(=O)n2-c2ccc3[nH]ccc3c2)c1Nc1ccccc1` came in with a 50% inhibitory concentration (IC50) of at most 1 µM. Regarding `Cc1ccc(-n2c(=O)ccc3c(Nc4cccc(C)c4)c(C(N)=O)sc32)cc1`, the IC50 was at most 1 µM. `Cc1cc(Nc2c(C(N)=O)sc3c2ccc(=O)n3C2CC2)ccc1F` showed an IC50 of at most 1 µM.

In turn, `NC(=O)c1sc2c(ccc(=O)n2CC2CC2)c1Nc1ccc(F)c(Cl)c1` gave an IC50 of at most 1 µM. `Cc1cc(Nc2c(C(N)=O)sc3c2ccc(=O)n3-c2ccsc2)ccc1F` displayed an IC50 of at most 1 µM. `Cc1cc(Nc2c(C(N)=O)sc3c2ccc(=O)n3-c2ccccc2)ccc1F` came in with a concentration for half-maximal inhibition (IC50) of at most 1 µM.

`NC(=O)c1sc2c(ccc(=O)n2CC2CC2)c1Nc1cccc(Br)c1` yielded a concentration for half-maximal inhibition (IC50) of at most 1 µM. As for `CN(C)c1ccc(-n2c(=O)ccc3c(Nc4ccccc4)c(C(=O)NCCCn4ccnc4)sc32)cc1`, the IC50 is at most 1 µM. `CCNC(=O)c1sc2c(ccc(=O)n2-c2ccccc2)c1Nc1ccccc1`: the 50% inhibitory concentration (IC50) was at most 1 µM.

Compound `N#Cc1sc2c(ccc(=O)n2-c2ccccc2)c1Nc1cc(Cl)cc(Cl)c1` registered an IC50 of at most 1 µM.

Compound `Cc1ccccc1-n1c(=O)ccc2c(Nc3ccc(F)cc3F)c(C#N)sc21` had a half-maximal inhibitory concentration (IC50) of at most 1 µM. In turn, `Cc1cccc(Nc2c(C(=N)N)sc3c2ccc(=O)n3-c2ccccc2)c1` returned a 50% inhibitory concentration (IC50) of at most 1 µM.

Regarding `Cc1cc(Nc2c(C#N)sc3c2ccc(=O)n3CC2CC2)ccc1F`, the 50% inhibitory concentration (IC50) was at most 1 µM. Take `NC(=O)c1sc2c(ccc(=O)n2-c2cccnc2)c1Nc1ccccc1`: the half-inhibitory concentration (IC50) was at most 1 µM. Turning to `CCN(CC)CCN(C)C(=O)c1sc2c(ccc(=O)n2-c2ccccc2)c1Nc1ccccc1`, the concentration for half-maximal inhibition (IC50) is at most 1 µM.

The compound `O=C(NCCN1CCOCC1)c1sc2c(ccc(=O)n2-c2ccccc2)c1Nc1ccccc1` gave an IC50 of at most 1 µM. The compound `O=C(NCCCn1ccnc1)c1sc2c(ccc(=O)n2-c2ccccc2)c1Nc1ccccc1` displayed an IC50 of at most 1 µM. `Cc1cccc(Nc2c(C(N)=S)sc3c2ccc(=O)n3-c2ccccc2)c1` showed a half-maximal inhibitory concentration (IC50) of at most 1 µM. As to `Cc1ccccc1-n1c(=O)ccc2c(Nc3ccc(F)cc3F)c(C(N)=O)sc21`, the half-maximal inhibitory concentration (IC50) was at most 1 µM. Take `NNC(=O)c1sc2c(ccc(=O)n2-c2ccccc2)c1Nc1ccccc1`: the IC50 is at most 1 µM. Turning to `Cc1cc(Nc2c(C(=O)N(C)O)sc3c2ccc(=O)n3-c2ccccc2)ccc1F`, the IC50 was at most 1 µM. The same measure for `CCOC(=O)c1sc2c(ccc(=O)n2-c2ccc(OCCn3ccnc3C)cc2)c1Nc1ccc(F)cc1F`: at most 1 µM; for `CCN(CC)CCNC(=O)c1sc2c(ccc(=O)n2-c2ccccc2)c1Nc1ccccc1`: at most 1 µM. Regarding `N#Cc1sc2c(ccc(=O)n2CC2CC2)c1Nc1ccccc1`, the half-inhibitory concentration (IC50) is at most 1 µM. As to `COC(=O)NNC(=O)c1sc2c(ccc(=O)n2-c2ccccc2)c1Nc1ccc(F)cc1F`, the half-maximal inhibitory concentration (IC50) was at most 1 µM. As to `Cc1cccc(Nc2c(C#N)sc3c2ccc(=O)n3-c2ccccc2)n1`, the IC50 is at most 1 µM. The same measure for `Cc1cccc(Nc2c(C(N)=O)sc3c2ccc(=O)n3CC2CC2)c1`: at most 1 µM; for `CCOC(=O)c1sc2c(ccc(=O)n2-c2ccccc2)c1Nc1ccccc1OC`: at most 1 µM.

For orientation: IC50 means the concentration that gives 50% inhibition. High values mean a need for much substance, low ones inhibition by little substance.

The values are drawn from the Kinase Knowledgebase extract (Sharma et al. 2016).
